These results are taken from publication PMC5029682, “Discovery and characterization of Isofistularin-3, a marine brominated alkaloid, as a new DNA demethylating agent inducing cell cycle arrest and sensitization to TRAIL in cancer cells” (Oncotarget, 2016).

Experiment [1] deals with T1, DNMT1 (Homo sapiens, UniProt P26358). Kind of experiment: in vitro DNMT activity/inhibition assay with purified DNMT1, positive control. It is filed as biochemical.
Experiment [2] deals with T1, DNMT1. Kind of experiment: in vitro DNMT activity/inhibition assay (colorimetric, Active Motif) with purified DNMT1. Format: biochemical.

The structures appear in SMILES notation.

T1 sequence (P26358 whole entry): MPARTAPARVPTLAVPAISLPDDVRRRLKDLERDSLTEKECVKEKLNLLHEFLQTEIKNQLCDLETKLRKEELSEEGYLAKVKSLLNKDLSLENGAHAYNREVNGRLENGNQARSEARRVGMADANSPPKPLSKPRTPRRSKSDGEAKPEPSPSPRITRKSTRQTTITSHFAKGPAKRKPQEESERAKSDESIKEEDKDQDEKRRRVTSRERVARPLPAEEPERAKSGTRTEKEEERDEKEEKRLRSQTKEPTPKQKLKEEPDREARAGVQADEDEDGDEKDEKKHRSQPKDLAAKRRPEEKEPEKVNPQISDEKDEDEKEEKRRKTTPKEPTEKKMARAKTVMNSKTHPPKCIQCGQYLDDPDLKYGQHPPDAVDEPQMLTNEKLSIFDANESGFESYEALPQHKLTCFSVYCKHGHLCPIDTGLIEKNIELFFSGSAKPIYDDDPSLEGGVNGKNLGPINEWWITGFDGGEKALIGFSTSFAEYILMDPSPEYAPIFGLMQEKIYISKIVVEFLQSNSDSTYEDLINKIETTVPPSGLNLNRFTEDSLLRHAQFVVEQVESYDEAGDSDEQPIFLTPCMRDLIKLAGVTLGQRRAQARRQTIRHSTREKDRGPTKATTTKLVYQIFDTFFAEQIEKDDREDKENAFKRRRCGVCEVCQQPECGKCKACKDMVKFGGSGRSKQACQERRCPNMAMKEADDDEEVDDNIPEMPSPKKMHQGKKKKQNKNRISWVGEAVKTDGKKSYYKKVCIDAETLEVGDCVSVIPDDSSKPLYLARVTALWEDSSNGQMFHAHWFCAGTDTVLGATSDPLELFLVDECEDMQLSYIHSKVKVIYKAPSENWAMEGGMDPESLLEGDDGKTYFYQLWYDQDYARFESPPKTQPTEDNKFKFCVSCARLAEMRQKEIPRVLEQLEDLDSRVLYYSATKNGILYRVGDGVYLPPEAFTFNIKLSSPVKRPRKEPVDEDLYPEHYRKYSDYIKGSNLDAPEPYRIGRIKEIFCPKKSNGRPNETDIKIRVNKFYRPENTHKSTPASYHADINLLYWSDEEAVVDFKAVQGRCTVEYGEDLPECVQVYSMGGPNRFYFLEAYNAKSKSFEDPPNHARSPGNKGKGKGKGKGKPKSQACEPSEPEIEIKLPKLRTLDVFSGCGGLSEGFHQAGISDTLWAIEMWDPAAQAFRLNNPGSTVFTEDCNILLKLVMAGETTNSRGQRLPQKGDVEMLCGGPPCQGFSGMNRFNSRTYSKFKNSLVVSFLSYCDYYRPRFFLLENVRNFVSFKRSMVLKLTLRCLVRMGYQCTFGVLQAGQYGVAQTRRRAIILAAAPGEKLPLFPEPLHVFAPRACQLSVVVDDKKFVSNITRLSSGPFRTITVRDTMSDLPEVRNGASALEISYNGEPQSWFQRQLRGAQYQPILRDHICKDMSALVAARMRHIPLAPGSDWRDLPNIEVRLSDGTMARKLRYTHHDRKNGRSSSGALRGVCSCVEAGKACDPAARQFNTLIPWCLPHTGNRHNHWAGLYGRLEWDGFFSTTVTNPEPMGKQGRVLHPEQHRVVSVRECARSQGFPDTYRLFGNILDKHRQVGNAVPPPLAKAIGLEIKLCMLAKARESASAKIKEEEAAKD

Regarding `O=C(O[C@@H]1Cc2c(O)cc(O)cc2O[C@@H]1c1cc(O)c(O)c(O)c1)c1cc(O)c(O)c(O)c1` [EGCG, Epigallocatechin gallate], the “in vitro DNMT activity/inhibition assay with purified DNMT1, positive control” value in experiment [1] is “Green tea polyphenol EGCG was used as a positive control for in vitro DNMT1 inhibition”. `COC1=C(Br)[C@H](O)[C@@]2(C=C1Br)CC(C(=O)NCC(O)COc1c(Br)cc(C(O)CNC(=O)C3=NO[C@]4(C=C(Br)C(OC)=C(Br)[C@@H]4O)C3)cc1Br)=NO2` (some centres unmarked) [Iso-3, Isofistularin-3]: in experiment [2], 13.5 ± 5.4 µM corresponded to half-maximal inhibition (IC50).
